Our source for the IC50 and inhibition values is EP4671247A1, “SUBSTITUTED PYRAZOLOPYRIMIDINE COMPOUND AND PHARMACEUTICAL USE THEREOF” (Japan Tobacco Inc., priority 2023, dated 2024).

One assay deals with T1, NLRP3 inflammasome (Homo sapiens, UniProt Q96P20).
T1 construct: host or cells: THP1-Null cells (PMA-differentiated, LPS-primed, nigericin-stimulated)
T1 sequence (Q96P20 whole entry): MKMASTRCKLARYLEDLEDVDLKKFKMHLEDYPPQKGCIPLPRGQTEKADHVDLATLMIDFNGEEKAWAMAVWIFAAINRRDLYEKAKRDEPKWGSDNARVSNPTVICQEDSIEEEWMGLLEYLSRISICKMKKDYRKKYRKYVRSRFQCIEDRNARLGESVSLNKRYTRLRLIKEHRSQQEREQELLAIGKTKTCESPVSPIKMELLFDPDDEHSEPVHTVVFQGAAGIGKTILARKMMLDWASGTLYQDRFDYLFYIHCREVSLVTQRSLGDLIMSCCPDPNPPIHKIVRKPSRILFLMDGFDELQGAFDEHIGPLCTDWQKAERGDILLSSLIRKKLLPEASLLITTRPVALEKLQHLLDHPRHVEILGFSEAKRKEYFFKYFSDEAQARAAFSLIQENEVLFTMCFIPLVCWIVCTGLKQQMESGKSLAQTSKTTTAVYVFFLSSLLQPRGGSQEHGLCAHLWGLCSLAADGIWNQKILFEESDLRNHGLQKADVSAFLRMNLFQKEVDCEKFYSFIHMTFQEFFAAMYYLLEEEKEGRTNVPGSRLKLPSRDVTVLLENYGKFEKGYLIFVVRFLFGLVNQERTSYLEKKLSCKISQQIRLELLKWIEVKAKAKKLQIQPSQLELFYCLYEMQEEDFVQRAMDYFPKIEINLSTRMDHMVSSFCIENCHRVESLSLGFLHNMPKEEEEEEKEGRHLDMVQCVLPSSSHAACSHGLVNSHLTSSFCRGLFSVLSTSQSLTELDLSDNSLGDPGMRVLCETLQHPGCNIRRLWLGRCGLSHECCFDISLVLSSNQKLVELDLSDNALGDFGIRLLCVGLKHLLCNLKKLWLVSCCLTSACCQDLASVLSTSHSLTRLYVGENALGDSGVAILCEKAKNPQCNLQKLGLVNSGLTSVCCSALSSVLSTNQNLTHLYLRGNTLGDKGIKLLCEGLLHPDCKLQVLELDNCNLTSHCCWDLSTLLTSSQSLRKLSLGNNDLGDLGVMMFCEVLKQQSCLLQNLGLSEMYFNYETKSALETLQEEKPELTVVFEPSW
The experiment in a line: Evaluation of NLRP3 inflammasome inhibitory activity (inhibition of IL-1β production in LPS/Nigericin-stimulated THP1-Null cells, AlphaLISA). The class given is cell-based. The settings on record: IL-1β production in THP1-Null cells; PMA, 1 µg/mL Lipopolysaccharides 3 hours, Nigericin 7.5 µmol/L 1.5 hours. The procedure, abridged: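 THP1-Null cells were primed with 1 µg/mL LPS, then given test compound and stimulated with nigericin. IL-1β in the culture supernatant was quantified by AlphaLISA. Inhibition was calculated with blank wells set as 100% and control wells as 0%.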
(In general: Alpha assays give light when donor and acceptor beads are brought close together.)
Usually IC50 stands for the concentration needed to halve the response being measured. Turning to `Cc1cc(OC(F)F)cc(C)c1-n1cc2c(=O)[nH]c(C3CCOCC3F)nc2n1` (single isomer, unassigned) [Example 176], the IC50 was determined as 75 nM.

Regarding `Cc1cc(C(C)(F)F)cc(C)c1-n1cc2c(=O)[nH]c(C3CCOCCO3)nc2n1` (racemic) [Example 168], the half-maximal inhibitory concentration (IC50) was determined as 74 nM.

With `Cc1cc(C2CC2)cc(C)c1-n1cc2c(=O)[nH]c(C(O)C(F)F)nc2n1` (single isomer, unassigned) [Example 170], the IC50 turned out to be 510 nM. Turning to `Cc1cc(OC(F)F)cc(C)c1-n1cc2c(=O)[nH]c(C3CCOCCO3)nc2n1` (single isomer, unassigned) [Example 193], the IC50 is 27 nM.

The assay is the same for the next values; noted with them: IL-1β production in THP1-Null cells; PMA, 1 µg/mL Lipopolysaccharides 3 hours, Nigericin 7.5 µmol/L 1.5 hours; read-out: IC50.
Regarding `Cc1cc(C(C)(F)F)cc(C)c1-n1cc2c(=O)[nH]c(C3(F)CCOCC3)nc2n1` [Example 107], the IC50 was determined as 15 nM.

Regarding `Cc1cc(C2CC2)cc(C)c1-n1cc2c(=O)[nH]c(C3CC3F)nc2n1` (racemic) [Example 93], the IC50 turned out to be 8 nM. In the case of `Cc1cc(C2CC2)cc(C)c1-n1cc2c(=O)[nH]c(C3=CCOCC3)nc2n1` [Example 131], the IC50 worked out at 5 nM. Still for that read-out and setting: under `Cc1cc(Br)cc(C)c1-n1cc2c(=O)[nH]c(C(C)O)nc2n1` (racemic) [Example 137] stands 24 nM; under `Cc1cc(C2CC2)cc(C)c1-n1cc2c(=O)[nH]c(C3(F)CCC3)nc2n1` [Example 69], 67 nM. Consider `Cc1cc(C2CC2)cc(C)c1-n1cc2c(=O)[nH]c(C(=O)N(C)C)nc2n1` [Example 195], for which the IC50 was determined as 180 nM. Consider `Cc1cc(Br)cc(C)c1-n1cc2c(=O)[nH]c(C3(F)COC3)nc2n1` [Example 108], for which the IC50 came out at 49 nM. `Cc1ccc(-n2cc3c(=O)[nH]c(C4CCO4)nc3n2)c(C)c1` (racemic) [Example 35]: the IC50 turned out to be 2100 nM. For `Cc1cc(C2CC2)cc(C)c1-n1cc2c(=O)[nH]c(C(=O)NC3COC3)nc2n1` [Example 201], the IC50 is 740 nM. Consider `Cc1ccc(-n2cc3c(=O)[nH]c(CCCS(C)(=O)=O)nc3n2)c(C)c1` [Example 37], for which the IC50 stood at 1100 nM. Consider `Cc1cc(C(C)(F)F)cc(C)c1-n1cc2c(=O)[nH]c(C3(F)CC3)nc2n1` [Example 162], for which the half-inhibitory concentration (IC50) was found to be 57 nM. On the same count and under the same terms, under `CCc1nc2nn(-c3c(C)cc(C4(F)CC4)cc3C)cc2c(=O)[nH]1` [Example 192] stands 20 nM; under `Cc1cc(C(C)(C)F)cc(C)c1-n1cc2c(=O)[nH]c(C3(F)CCOCC3)nc2n1` [Example 109], 17 nM; under `Cc1cc(C2CC2)cc(C)c1-n1cc2c(=O)[nH]c(C(N)=O)nc2n1` [Example 203], 290 nM. On to `Cc1cc(Br)cc(C)c1-n1cc2c(=O)[nH]c(C3CCCCC3)nc2n1` [Example 71], for which the IC50 worked out at 11 nM. As for `Cc1cc(C(C)(F)F)cc(C)c1-n1cc2c(=O)[nH]c(C3CC3)nc2n1` [Example 80], the IC50 is 29 nM. Take `Cc1cc(C(C)(F)F)cc(C)c1-n1cc2c(=O)[nH]c([C@@H](C)O)nc2n1` (single isomer, unassigned) [Example 154]: the IC50 turned out to be 25 nM.

Turning to `Cc1ccccc1-n1cc2c(=O)[nH]c(C3=CCCC3)nc2n1` [Example 2], the IC50 was determined as 1300 nM.

Regarding `Cc1ccc(-n2cc3c(=O)[nH]c(C4CCOCC4)nc3n2)c(C)c1` [Example 33], the IC50 was 68 nM.

Take `Cc1cc(C2CC2)cc(C)c1-n1cc2c(=O)[nH]c(C34CC(CO)(CO3)C4)nc2n1` [Example 95]: the IC50 amounted to 42 nM. Still for that read-out and setting: in the case of `CCc1nc2nn(-c3ccc(C)cc3C)cc2c(=O)[nH]1` [Example 8] it was 230 nM. The same measure, in the same setting: in the case of `Cc1cc(C2CC2)cc(C)c1-n1cc2c(=O)[nH]c(C34CCOCC3C4(F)F)nc2n1` (racemic) [Example 115] it was 430 nM; in that of `Cc1ccc(-n2cc3c(=O)[nH]c(C4CCCCO4)nc3n2)c(C)c1` (racemic) [Example 40], 430 nM; in that of `Cc1cc(Br)cc(C)c1-n1cc2c(=O)[nH]c(C3CCOCC3O)nc2n1` (single isomer, unassigned) [Example 104], 15 nM. As to `COc1cc(C)c(-n2cc3c(=O)[nH]c(C45CC(CO)(CO4)C5)nc3n2)c(C)c1` [Example 94], the IC50 was found to be 220 nM. Consider `Cc1cc(C2CC2)cc(C)c1-n1cc2c(=O)[nH]c(C(C)F)nc2n1` (racemic) [Example 128], for which the IC50 came to 44 nM.

Turning to `COC1(c2nc3nn(-c4c(C)cc(Br)cc4C)cc3c(=O)[nH]2)CCOC1` (racemic) [Example 86], the IC50 is 350 nM.

The same assay, now with this note: test compound at 2.4 µM; IL-1β production in THP1-Null cells.
For orientation: inhibition means the drop in the measured response relative to a control, in per cent. Turning to `Cc1ccc(-n2cc3c(=O)[nH]c(CN4CCOCC4)nc3n2)c(C)c1` [Example 38], the inhibition at 2.4 µM was 40%.

`CNC(=O)Cn1c(C)nc2nn(-c3ccc(C)cc3C)cc2c1=O` [Example 17]: the inhibition at 2.4 µM is -15%.
